# Laboratory results published in PubChem BioAssay AID1963963 (Molecular Pharmacology Branch, DTP, NCI, 2024).
# System: 958667-338-R-J2-PDC tumor spheroids viability
# Experiment: Anticancer human tumor 958667-338-R-J2-PDC patient-derived colon adenocarcinoma cell line growth inhibition [PI3K]
# Conditions: spheroids with HUVEC and MSC; for IC50: curve of first compound; for viability, T/C: stronger effect = lower value
# Text: Combinatorial screen of targeted agents with the PI3K inhibitors inavolisib, alpelisib, duvelisib, and copanlisib in multi-cell type tumor spheroids
# A high-throughput screen of multi-cell type tumor spheroids was designed to identify active combinations of targeted small molecules and PI3K pathway inhibitors. Complex spheroids include a stromal component modeled by human endothelial cells (HUVEC) and fibroblasts modeled by human mesenchymal stem cells (MSCs). The concentration ranges selected for each drug and investigational agent were based upon clinically achievable concentrations if the clinical Cmax of the agent was known.
# Compounds. The drugs and investigational agents: inavolisib (NSC800729), alpelisib (NSC765974), duvelisib (NSC772469), copanlisib (NSC816437), ipatasertib (NSC767898), afuresertib (NSC778305), talazoparib (NSC767125), sapanisertib (NSC764658), selumetinib (NSC741078), tovorafenib (DAY101, NSC766906), vemurafenib (NSC761431), ravoxertinib (NSC781343), sotorasib (NSC818433), MRTX1133 (NSC 836407), abemaciclib (NSC 768073), palbociclib (NSC758247), venetoclax (NSC 766270), SY5609 (NSC837396), enzalutamide (NSC755605), and darolutamide (NSC825331), were obtained from the National Cancer Institute (NCI) Developmental Therapeutics Program Chemical Repository. The FDA-approved anticancer drug set is available from the NCI Developmental Therapeutics Program. […] The stock solutions were prepared in dimethyl sulfoxide (DMSO, Sigma-Aldrich, St. Louis, MO, cat. D2650) at 800-fold the tested concentration and stored at -70 degrees C prior to their use. All drugs and investigational agents were tested over a range starting from a high concentration at or near the clinical Cmax and decreasing in half-log increments. If the clinical Cmax for an agent had not been determined, the highest concentration tested was 10 microM.
# Cell Culture. All cells were maintained in an incubator at 37 degrees C and 5% CO2 with 95% humidity. The PDC lines were cultured according to standard operating procedures established by the NCI PDMR (https://pdmr.cancer.gov/sops/default.htm). All PDCs were thawed and cultured in Matrigel-coated flasks prepared with a working solution of 1X Ham's F-12 nutrient mix, without supplementation (Invitrogen, Waltham, MA, cat. 11765054), 100 U/mL penicillin-streptomycin (Invitrogen, cat. 15140122), and 2.5% Matrigel (Corning Inc., Corning, NY, cat. 354248) for the first three passages. The 354836-022-R-J1-PDC, 475296-252-R-J1-PDC, and 997726-040-R-J2-PDC lines were cultured in 6A media, which includes advanced DMEM/F-12 (Thermo Fisher Scientific, cat. 12634028), 10 mM HEPES (Thermo Fisher Scientific, cat. 15630080), 1X GlutaMAX supplement (Thermo Fisher Scientific, cat. 35050061), 0.1 mg/mL primocin (InvivoGen, San Diego, CA, cat. ant-pm-2), 10% defined fetal bovine serum, heat inactivated (HyClone Laboratories Inc., Logan, UT, cat. SH30070.03HI), 50% L-WRN conditioned media (ATCC, cat. CRL-3276), 1.25 mM N-Acetyl-L-cysteine (Sigma-Aldrich, cat. A9165), 10 mM nicotinamide (Sigma-Aldrich, cat. N0636), 1X B-27 supplement (Thermo Fisher Scientific, cat. 17504044), 1X N-2 supplement (Thermo Fisher Scientific, cat. 17502048), and 10 microM Y-27632 dihydrochloride (Tocris Bioscience, Bristol, United Kingdom, cat. 1254). The 624824-186-R-J2-PDC line was cultured in 6C/Colon 1B media, which includes all 6A media components plus 50 ng/mL human EGF recombinant protein (Thermo Fisher Scientific, cat. PHG0311). […]
# [1] = second compound 0.0316 µM, first compound 0.0316 µM
# [2] = second compound 0.0316 µM, first compound 0.1 µM
# [3] = second compound 0.0316 µM, first compound 0.316 µM
# [4] = second compound 0.0316 µM, first compound 1 µM
# [5] = second compound 0.0316 µM, first compound 3.16 µM
# [6] = second compound 0.0316 µM, first compound 10 µM
# [7] = second compound 0.1 µM, first compound 0.0316 µM
# [8] = second compound 0.1 µM, first compound 0.1 µM
# [9] = second compound 0.1 µM, first compound 0.316 µM
# [10] = second compound 0.1 µM, first compound 1 µM
# [11] = second compound 0.1 µM, first compound 3.16 µM
# [12] = second compound 0.1 µM, first compound 10 µM
# [13] = second compound 0.316 µM, first compound 0.0316 µM
# [14] = second compound 0.316 µM, first compound 0.1 µM
# [15] = second compound 0.316 µM, first compound 0.316 µM
# [16] = second compound 0.316 µM, first compound 1 µM
# [17] = second compound 0.316 µM, first compound 3.16 µM
# [18] = second compound 0.316 µM, first compound 10 µM
# [19] = second compound 1 µM, first compound 0.0316 µM
# [20] = second compound 1 µM, first compound 0.1 µM
# [21] = second compound 1 µM, first compound 0.316 µM
# [22] = second compound 1 µM, first compound 1 µM
# [23] = second compound 1 µM, first compound 3.16 µM
# [24] = second compound 1 µM, first compound 10 µM
# [25] = second compound 3.16 µM, first compound 0.0316 µM
# [26] = second compound 3.16 µM, first compound 0.1 µM
# [27] = second compound 3.16 µM, first compound 0.316 µM
# [28] = second compound 3.16 µM, first compound 1 µM
# [29] = second compound 3.16 µM, first compound 3.16 µM
# [30] = second compound 3.16 µM, first compound 10 µM
# [31] = second compound 10 µM, first compound 0.0316 µM
# [32] = second compound 10 µM, first compound 0.1 µM
# [33] = second compound 10 µM, first compound 0.316 µM
# [34] = second compound 10 µM, first compound 1 µM
# [35] = second compound 10 µM, first compound 3.16 µM
# [36] = second compound 10 µM, first compound 10 µM
# 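Further: spheroids exposed to compounds for seven days before readout.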
compound,measurement,setting,value
C#Cc1c(F)ccc2cc(O)cc(-c3ncc4c(N5CC6CCC(C5)N6)nc(OCC56CCCN5CC(F)C6)nc4c3F)c12 (stereo unspecified) + CC(Nc1ncnc2nc[nH]c12)c1cc2cccc(Cl)c2c(=O)n1-c1ccccc1,IC50,second compound 0.0316 µM,> 10 µM
same,IC50,second compound 0.1 µM,> 10 µM
same,IC50,second compound 0.316 µM,> 10 µM
same,IC50,second compound 1 µM,> 10 µM
same,IC50,second compound 3.16 µM,7.83 µM
same,IC50,second compound 10 µM,8.56 µM
same,"viability, T/C",[1],104%
same,"viability, T/C",[2],99.2%
same,"viability, T/C",[3],109%
same,"viability, T/C",[4],84.9%
same,"viability, T/C",[5],97.5%
same,"viability, T/C",[6],69.7%
same,"viability, T/C",[7],102%
same,"viability, T/C",[8],109%
same,"viability, T/C",[9],86.8%
same,"viability, T/C",[10],104%
same,"viability, T/C",[11],85.2%
same,"viability, T/C",[12],77.5%
same,"viability, T/C",[13],84%
same,"viability, T/C",[14],99.3%
same,"viability, T/C",[15],93.5%
same,"viability, T/C",[16],92.8%
same,"viability, T/C",[17],93.9%
same,"viability, T/C",[18],63.5%
same,"viability, T/C",[19],77.4%
same,"viability, T/C",[20],101%
same,"viability, T/C",[21],90.9%
same,"viability, T/C",[22],84.8%
same,"viability, T/C",[23],106%
same,"viability, T/C",[24],65.1%
same,"viability, T/C",[25],91.4%
same,"viability, T/C",[26],94.2%
same,"viability, T/C",[27],85.3%
same,"viability, T/C",[28],76.5%
same,"viability, T/C",[29],73.2%
same,"viability, T/C",[30],43.6%
same,"viability, T/C",[31],86.3%
same,"viability, T/C",[32],83.2%
same,"viability, T/C",[33],73.1%
same,"viability, T/C",[34],86.9%
same,"viability, T/C",[35],71.5%
same,"viability, T/C",[36],46.4%
Cn1nccc1Nc1nccc(-c2ccn(C(CO)c3ccc(Cl)c(F)c3)c(=O)c2)n1 (stereo unspecified) + Cc1nc(NC(=O)N2CCCC2C(N)=O)sc1-c1ccnc(C(C)(C)C(F)(F)F)c1,IC50,second compound 0.0316 µM,> 10 µM
same,IC50,second compound 0.1 µM,> 10 µM
same,IC50,second compound 0.316 µM,> 10 µM
same,IC50,second compound 1 µM,8.05 µM
same,IC50,second compound 3.16 µM,3.66 µM
same,IC50,second compound 10 µM,1.6 µM
same,"viability, T/C",[1],113%
same,"viability, T/C",[2],105%
same,"viability, T/C",[3],119%
same,"viability, T/C",[4],101%
same,"viability, T/C",[5],79.5%
same,"viability, T/C",[6],77.2%
same,"viability, T/C",[7],137%
same,"viability, T/C",[8],98%
same,"viability, T/C",[9],97.2%
same,"viability, T/C",[10],79.8%
same,"viability, T/C",[11],75%
same,"viability, T/C",[12],71.8%
same,"viability, T/C",[13],99.6%
same,"viability, T/C",[14],92.8%
same,"viability, T/C",[15],91.3%
same,"viability, T/C",[16],72%
same,"viability, T/C",[17],82.2%
same,"viability, T/C",[18],67.4%
same,"viability, T/C",[19],101%
same,"viability, T/C",[20],85.9%
same,"viability, T/C",[21],84.5%
same,"viability, T/C",[22],68.8%
same,"viability, T/C",[23],77.8%
same,"viability, T/C",[24],42.1%
same,"viability, T/C",[25],65.8%
same,"viability, T/C",[26],78.8%
same,"viability, T/C",[27],74.6%
same,"viability, T/C",[28],90.4%
same,"viability, T/C",[29],56.6%
same,"viability, T/C",[30],4.78%
same,"viability, T/C",[31],68%
same,"viability, T/C",[32],55.8%
same,"viability, T/C",[33],67.1%
same,"viability, T/C",[34],72.4%
same,"viability, T/C",[35],26.9%
same,"viability, T/C",[36],5.35%
CCCS(=O)(=O)Nc1ccc(F)c(C(=O)c2c[nH]c3ncc(-c4ccc(Cl)cc4)cc23)c1F + CC(Nc1ncnc2nc[nH]c12)c1cc2cccc(Cl)c2c(=O)n1-c1ccccc1,IC50,second compound 0.0316 µM,7.99 µM
same,IC50,second compound 0.1 µM,6.5 µM
same,IC50,second compound 0.316 µM,6.36 µM
same,IC50,second compound 1 µM,6.31 µM
same,IC50,second compound 3.16 µM,6.66 µM
same,IC50,second compound 10 µM,6.18 µM
same,"viability, T/C",[1],121%
same,"viability, T/C",[2],97.5%
same,"viability, T/C",[3],99.8%
same,"viability, T/C",[4],116%
same,"viability, T/C",[5],131%
same,"viability, T/C",[6],34.7%
same,"viability, T/C",[7],95.8%
same,"viability, T/C",[8],91.7%
same,"viability, T/C",[9],101%
same,"viability, T/C",[10],99.9%
same,"viability, T/C",[11],133%
same,"viability, T/C",[12],17.6%
same,"viability, T/C",[13],82.2%
same,"viability, T/C",[14],79.8%
same,"viability, T/C",[15],92.4%
same,"viability, T/C",[16],104%
same,"viability, T/C",[17],134%
same,"viability, T/C",[18],18.5%
same,"viability, T/C",[19],102%
same,"viability, T/C",[20],107%
same,"viability, T/C",[21],121%
same,"viability, T/C",[22],89.5%
same,"viability, T/C",[23],101%
same,"viability, T/C",[24],16.6%
same,"viability, T/C",[25],121%
same,"viability, T/C",[26],119%
same,"viability, T/C",[27],83.4%
same,"viability, T/C",[28],116%
same,"viability, T/C",[29],117%
same,"viability, T/C",[30],16.2%
same,"viability, T/C",[31],79.5%
same,"viability, T/C",[32],99%
same,"viability, T/C",[33],103%
same,"viability, T/C",[34],91.9%
same,"viability, T/C",[35],99.6%
same,"viability, T/C",[36],17.9%
